Like-named read-outs stand apart in the source and are kept apart here.
Columns and labels:
Assay type in all cases: cell-based
[1] = test system: E. coli B-89; assay: Quantitative drug diffusion assay (disc, zone of inhibition, CLSI); parameters: key to Interpretation of zone as per CLSI recommendations: R: Resistant; I: Intermediate; S: Sensitive (Interpretation as per CLSI recommendations, 2010)
Description: (§1) Activity of cefepime in combination with tazobactam and various penicillins in combination with respective ESBL inhibitors was also investigated against highly resistant ESBL strains in quantitative drug diffusion assay performed as per CLSI recommendations (Clinical and Laboratory Standards Institute (CLSI), performance Standards for Antimicrobial Susceptibility Testing, 20th Informational Supplement, M 100-S20, Volume 30, No. 1, 2010).
(§2) In a typical study, overnight grown bacterial cultures after appropriate dilution were seed inoculated in the molten, cooled agar media and plates poured. Antibiotics containing 6 mm diameter discs were place on the top of the agar surface. Zone of inhibition based observation was performed after 16-18 h of incubation at 35±2° C. in ambient air. The overall procedure was performed as per CLSI recommendations (Table 5 and 6). These assays are routinely used in determining possibility of treating a particular infection using antibiotic and/or their combinations. For example, in case of treating an infection caused by E. coli (M138) using Augmentin® [commercially available combination: Amoxicillin (500 mg)+Clavulanic acid (125 mg)], the zone inhibition values need to be in the sensitive (S) range.

[2] = test system: E. coli M-138; assay: as above; parameters: key to Interpretation of zone as per CLSI recommendations: R: Resistant; I: Intermediate; S: Sensitive (Interpretation as per CLSI recommendations, 2010)
Description: as §1, §2

[3] = test system: E. coli B-123; assay: as above; parameters: key to Interpretation of zone as per CLSI recommendations: R: Resistant; I: Intermediate; S: Sensitive (Interpretation as per CLSI recommendations, 2010)
Description: as §1, §2

[4] = test system: E. coli S-112; assay: as above; parameters: key to Interpretation of zone as per CLSI recommendations: R: Resistant; I: Intermediate; S: Sensitive (Interpretation as per CLSI recommendations, 2010)
Description: as §1, §2

[5] = test system: E. coli 7MP; assay: as above; parameters: key to Interpretation of zone as per CLSI recommendations: R: Resistant; I: Intermediate; S: Sensitive (Interpretation as per CLSI recommendations, 2010)
Description: as §1, §2

[6] = test system: E. coli M50; assay: as above; parameters: key to Interpretation of zone as per CLSI recommendations: R: Resistant; I: Intermediate; S: Sensitive (Interpretation as per CLSI recommendations, 2010)
Description: as §1, §2

[7] = test system: E. coli B-89; assay: MIC by agar dilution (CLSI) against highly resistant ESBL strain; settings: E. coli B-89
Protocol: (§3) The results on activity of cefepime and other cephalosporin antibacterial agents in combination with tazobactam against highly resistant ESBL strains are given Table 1. In a typical study, overnight grown bacterial cultures were diluted appropriately and inoculated on the agar media containing doubling dilutions of the antibiotic. Observation for growth or no growth was performed after 16-20 h of incubation at 35±2° C. in ambient air. The overall procedure was performed as per Clinical and Laboratory Standards Institute (CLSI) recommendations. This experimental was followed for Examples 2-4 and 6 below (Table 2-4 and 7).

[8] = test system: E. coli 7MP; assay: as above; settings: E. coli 7MP
Protocol: as §3

[9] = test system: E. coli B123; assay: as above; settings: for Activity (MIC, method of Example 1), Table 7: E. coli B-123; for MIC: Escherichia coli, B123, E. coli B123, read-out: MIC
Protocol: as §3

[10] = test system: E. cloacae M-20; assay: as above; settings: E. cloacae M-20
Protocol: as §3

[11] = test system: K. pneumoniae M150; assay: as above
Protocol: as §3

[12] = test system: E. coli M50; assay: as above
Protocol: as §3

[13] = ESBL inhibitor 0 mcg (antibiotic alone)
[14] = Table 5, with Tazobactam 10 mcg

In the case of CO/N=C(\C(=O)N[C@@H]1C(=O)N2C(C(=O)[O-])=C(C[N+]3(C)CCCC3)CS[C@H]12)c1csc(N)n1 [Cefepime], the “Zone of Inhibition” value [1, 13] is reported as 8 mm, the “Interpretation of zone as per CLSI recommendations” value ([1]; Table 5, ESBL inhibitor 0 mcg) is reported as “(R)” and the “Interpretation of zone as per CLSI recommendations” value [1, 14] is reported as “(S)”. For the same compound, the “Zone of Inhibition” value ([1]; with Tazobactam 10 mcg) was 20 mm, the “Zone of Inhibition” value [2, 13] was “Nil” and the “Interpretation of zone as per CLSI recommendations” value ([2]; Table 5, ESBL inhibitor 0 mcg) was “(R)”. For the same compound, the “Interpretation of zone as per CLSI recommendations” value [2, 14] was “(S)”, the “Zone of Inhibition” value ([2]; with Tazobactam 10 mcg) was 23 mm and the “Zone of Inhibition” value [3, 13] was 8 mm. The “Interpretation of zone as per CLSI recommendations” value ([3]; Table 5, ESBL inhibitor 0 mcg) was “(R)”, the “Interpretation of zone as per CLSI recommendations” value [3, 14] was “(S)” and the “Zone of Inhibition” value ([3]; with Tazobactam 10 mcg) was 20 mm. For the same compound, the “Zone of Inhibition” value [4, 13] was 17 mm, the “Interpretation of zone as per CLSI recommendations” value ([4]; Table 5, ESBL inhibitor 0 mcg) was “(I)” and the “Interpretation of zone as per CLSI recommendations” value [4, 14] was “(S)”. For the same compound, the “Zone of Inhibition” value ([4]; with Tazobactam 10 mcg) was 20.5 mm, the “Zone of Inhibition” value [5, 13] was 16 mm and the “Interpretation of zone as per CLSI recommendations” value ([5]; Table 5, ESBL inhibitor 0 mcg) was “(I)”. For the same compound, the “Interpretation of zone as per CLSI recommendations” value [5, 14] was “(S)”, the “Zone of Inhibition” value ([5]; with Tazobactam 10 mcg) was 20.5 mm and the “Zone of Inhibition” value [6, 13] was 7.5 mm. The “Interpretation of zone as per CLSI recommendations” value ([6]; Table 5, ESBL inhibitor 0 mcg) was “(R)”, the “Interpretation of zone as per CLSI recommendations” value [6, 14] was “(S)” and the “Zone of Inhibition” value ([6]; with Tazobactam 10 mcg) was 24 mm. It also gave an MIC ([7]; with Tazobactam 8 mcg) of 2 mg/L, an MIC ([7]; Escherichia coli, B89, 20 h, Tazobactam 0 mcg (antibiotic alone), read-out: MIC) greater than 64 mg/L and an Activity (MIC, method of Example 1), Table 7 ([8]; antibiotic alone) greater than 64 mg/L. It also gave an Activity (MIC, method of Example 1), Table 7 ([8]; with Clavulanic acid 4 mcg) of 16 mg/L, an Activity (MIC, method of Example 1), Table 7 ([8]; with Clavulanic acid 8 mcg) of 8 mg/L and an Activity (MIC, method of Example 1), Table 7 ([8]; with Sulbactam 4 mcg) of 16 mg/L. The Activity (MIC, method of Example 1), Table 7 ([8]; with Sulbactam 8 mcg) was 16 mg/L, the Activity (MIC, method of Example 1), Table 7 ([8]; with Tazobactam 4 mcg) was 8 mg/L and the MIC ([8]; with Tazobactam 4 mcg) was 8 mg/L. For the same compound, the MIC ([8]; with Tazobactam 8 mcg) was 4 mg/L, the Activity (MIC, method of Example 1), Table 7 ([8]; with Tazobactam, (4 mcg)) was 4 mg/L and the MIC ([8]; Escherichia coli, 7MP, 20 h, Tazobactam 0 mcg (antibiotic alone), read-out: MIC) was greater than 64 mg/L. The Activity (MIC, method of Example 1), Table 7 ([9]; antibiotic alone) was greater than 64 mg/L, the Activity (MIC, method of Example 1), Table 7 ([9]; with Clavulanic acid 4 mcg) was 8 mg/L and the Activity (MIC, method of Example 1), Table 7 ([9]; with Clavulanic acid 8 mcg) was 8 mg/L. For the same compound, the Activity (MIC, method of Example 1), Table 7 ([9]; with Sulbactam 4 mcg) was 8 mg/L, the Activity (MIC, method of Example 1), Table 7 ([9]; with Sulbactam 8 mcg) was 16 mg/L and the Activity (MIC, method of Example 1), Table 7 ([9]; with Tazobactam 4 mcg) was 4 mg/L. It also gave an Activity (MIC, method of Example 1), Table 7 ([9]; with Tazobactam, (4 mcg)) of 2 mg/L, an MIC ([9]; Tazobactam 0 mcg (antibiotic alone)) greater than 64 mg/L and an MIC ([9]; with Tazobactam 4 mcg) of 4 mg/L. The MIC ([9]; with Tazobactam 8 mcg) was 2 mg/L, the Activity (MIC, method of Example 1), Table 7 ([10]; antibiotic alone) was greater than 64 mg/L and the Activity (MIC, method of Example 1), Table 7 ([10]; with Clavulanic acid 4 mcg) was 16 mg/L. For the same compound, the Activity (MIC, method of Example 1), Table 7 ([10]; with Clavulanic acid 8 mcg) was 8 mg/L, the Activity (MIC, method of Example 1), Table 7 ([10]; with Sulbactam 4 mcg) was 32 mg/L and the Activity (MIC, method of Example 1), Table 7 ([10]; with Sulbactam 8 mcg) was 16 mg/L. The Activity (MIC, method of Example 1), Table 7 ([10]; with Tazobactam 4 mcg) was 4 mg/L, the MIC ([10]; with Tazobactam 8 mcg) was 4 mg/L and the Activity (MIC, method of Example 1), Table 7 ([10]; with Tazobactam, (4 mcg)) was 4 mg/L. For the same compound, the MIC ([10]; Enterobacter cloacae, M20, 20 h, Tazobactam 0 mcg (antibiotic alone), read-out: MIC) was greater than 64 mg/L, the MIC ([11]; K. pneumoniae M150, with Tazobactam 4 mcg) was 4 mg/L and the MIC ([11]; K. pneumoniae M150, with Tazobactam 8 mcg) was 4 mg/L. For the same compound, the MIC ([11]; Klebsiella pneumoniae, M150, K. pneumoniae M150, Tazobactam 0 mcg (antibiotic alone), read-out: MIC) was greater than 64 mg/L, the MIC ([11]; Klebsiella pneumoniae, M150, K. pneumoniae M150, with Tazobactam 4 mcg, read-out: MIC) was 4 mg/L and the MIC ([11]; Klebsiella pneumoniae, M150, K. pneumoniae M150, with Tazobactam 8 mcg, read-out: MIC) was 4 mg/L. The MIC ([12]; Escherichia coli, 20 h, Tazobactam 0 mcg (antibiotic alone), read-out: MIC) was greater than 64 mg/L, the MIC ([12]; with Tazobactam 4 mcg) was 2 mg/L and the MIC ([12]; with Tazobactam 8 mcg) was 2 mg/L.

From patent US20160175318A1, “COMPOSITIONS COMPRISING ANTIBACTERIAL AGENT AND TAZOBACTAM” (WOCKHARDT LIMITED, priority 2013, published 2016)
